Converted amounts (≈) assume the structure as drawn. *1 amine or outer side, *2 acyl side, *3 side chain or, on linkers, in order; H or OH if unused. Where a SMILES comes first, the peptide text is derived from it. [ ]: non-standard residue; d: D form. X1 = CCCCCC(O)CC(N[*:1])C(O)C(=O)[*:2]; d(aIle) = CC[C@H](C)[C@@H](N)C(=O)O; Dhb = C/C=C(\N)C(=O)O
Experiments:
Format in all cases: cell-based
Bacillus subtilis = test: Broth two-fold microdilution; settings: B. subtilis CCM1999; Mueller Hinton broth, 300–0.0732 µg/mL (control 32–0.0625), 37 °C 16 h, triplicate; MIC = least concentration showing any inhibition in the growth
Protocol: Furthermore, compound 1 was evaluated for its antimicrobial activity against five bacterial isolates; S. aureus (CCM3824), B. subtilis (CCM1999), S. sanguinis (CCM4047), P. aeruginosa (CCM1959), E. coli (CCM2024), and eight fungal isolates; C. friedrichii (BCC020_2879), A. fumigatus (BCC020_2845), F. oxysporum (BCC020_2866), T. harzianum (BCC020_0606), B. sorokiniana (BCC020_1571), M. cucumerina (BCC020_2872), C. globosum (BCC020_2527), and A. alternata (BCC020_0609) using broth two-fold microdilution method following the standard protocol. Briefly, for broth microdilution method, the compounds were serially diluted at varying concentrations between 300 and 0.0732 µg/mL in Mueller Hinton broth (for bacteria) and Muller Hinton broth with 2% glucose (for fungi) in 96-well plates. Culture broth (0.1 mL) was added to each well containing the compound. […] MIC95 was determined as the concentration required to inhibit or kill 95% of bacterial isolates spectroscopically at 600 nm. Minimum fungicidal concentration (MFCs) were determined after 48 h incubation by removing 10 µL of the contents from wells showing no visible growth and spreading them on to Sabouraud dextrose agar plates. The plates were then incubated for 72 h and MFCs were determined as the concentrations which killed 95–100% of the inoculum. […]

Chaetomium globosum = test: microbe, parasite or virus in culture
Protocol: (§1) Furthermore, compound 1 was evaluated for its antimicrobial activity against five bacterial isolates; S. aureus (CCM3824), B. subtilis (CCM1999), S. sanguinis (CCM4047), P. aeruginosa (CCM1959), E. coli (CCM2024), and eight fungal isolates; C. friedrichii (BCC020_2879), A. fumigatus (BCC020_2845), F. oxysporum (BCC020_2866), T. harzianum (BCC020_0606), B. sorokiniana (BCC020_1571), M. cucumerina (BCC020_2872), C. globosum (BCC020_2527), and A. alternata (BCC020_0609) using broth two-fold microdilution method following the standard protocol. Briefly, for broth microdilution method, the compounds were serially diluted at varying concentrations between 300 and 0.0732 µg/mL in Mueller Hinton broth (for bacteria) and Muller Hinton broth with 2% glucose (for fungi) in 96-well plates. Culture broth (0.1 mL) was added to each well containing the compound. Plates were incubated aerobically at 37 °C for 16 h (bacteria) and 30 °C for 48 h (for fungi). Negative controls were prepared separately with respective organisms in the same culture media with methanol (the dissolving solvent). Positive controls were also prepared separately with respective organisms. Erythromycin (32–0.0625 µg/mL) was used as positive control for S. aureus and S. sanguinis, gentamycin (32–0.0625 µg/mL) was used as positive control for Bacillus subtilis, E. coli, and P. aeruginosa, whereas fluconazole (32–0.0625 µg/mL) was used as positive control for all the fungal isolates. After incubation, the well with the least concentration of the compound showing any inhibition in the growth was taken as the MIC value for the respective organisms. MIC95 was determined as the concentration required to inhibit or kill 95% of bacterial isolates spectroscopically at 600 nm. Minimum fungicidal concentration (MFCs) were determined after 48 h incubation by removing 10 µL of the contents from wells showing no visible growth and spreading them on to Sabouraud dextrose agar plates. The plates were then incubated for 72 h and MFCs were determined as the concentrations which killed 95–100% of the inoculum. All the experiments were done in triplicate.

Trichoderma harzianum = test: microbe, parasite or virus in culture
Protocol: as §1

Aspergillus fumigatus = test: microbe, parasite or virus in culture
Protocol: as §1

Fusarium oxysporum = test: microbe, parasite or virus in culture
Protocol: as §1

Alternaria alternata = test: microbe, parasite or virus in culture
Protocol: as §1

Candida friedrichii = test: microbe, parasite or virus in culture
Protocol: as §1

Monographella cucumerina = test: microbe, parasite or virus in culture
Protocol: as §1

Work on `C/C=C1\NC(=O)[C@H](CO)NC(=O)[C@@H]([C@@H](C)CC)NC(=O)[C@H](Cc2ccccc2)NC(=O)[C@@H]2CCCN2C(=O)CNC(=O)[C@@H](CCC(N)=O)NC(=O)C(O)C(CC(O)CCCCC)NC(=O)[C@@H]2CCCN2C(=O)[C@@H]([C@@H](C)CC)NC(=O)[C@H](CO)NC1=O` (stereo partly drawn) [compound 2, muscotoxin A] (cyclo([Dhb]S[d(aIle)]P[X1][dQ]GPF[d(aIle)]S)) yielded an MIC (Bacillus subtilis) of 37.5 µg/mL (≈ 31 µM), an MIC (Chaetomium globosum; C. globosum BCC020_2527, Muller Hinton broth with 2% glucose, 300–0.0732 µg/mL (control 32–0.0625), 30 °C 48 h, triplicate, least concentration showing any inhibition) of 18.75 µg/mL (≈ 15.5 µM) and an MFC (Chaetomium globosum; C. globosum, 10 µL from wells without visible growth after 48 h spread on Sabouraud dextrose agar, 72 h, kills 95–100% of the inoculum) of less than 300 µg/mL. The MIC (Trichoderma harzianum; T. harzianum BCC020_0606, Muller Hinton broth with 2% glucose, 300–0.0732 µg/mL (control 32–0.0625), 30 °C 48 h, triplicate, least concentration showing any inhibition) was 37.5 µg/mL (≈ 31 µM), the MFC (Trichoderma harzianum; T. harzianum, 10 µL from wells without visible growth after 48 h spread on Sabouraud dextrose agar, 72 h, kills 95–100% of the inoculum) was 300 µg/mL (≈ 248 µM) and the MIC (Aspergillus fumigatus; A. fumigatus BCC020_2845, Muller Hinton broth with 2% glucose, 300–0.0732 µg/mL (control 32–0.0625), 30 °C 48 h, triplicate, least concentration showing any inhibition) was 2.34 µg/mL (≈ 1.93 µM). The MFC (Aspergillus fumigatus; A. fumigatus, 10 µL from wells without visible growth after 48 h spread on Sabouraud dextrose agar, 72 h, kills 95–100% of the inoculum) was 37.5 µg/mL (≈ 31 µM), the MIC (Fusarium oxysporum; F. oxysporum BCC020_2866, Muller Hinton broth with 2% glucose, 300–0.0732 µg/mL (control 32–0.0625), 30 °C 48 h, triplicate, least concentration showing any inhibition) was 75 µg/mL (≈ 61.9 µM) and the MFC (Fusarium oxysporum; F. oxysporum, 10 µL from wells without visible growth after 48 h spread on Sabouraud dextrose agar, 72 h, kills 95–100% of the inoculum) was less than 300 µg/mL. The MIC (Alternaria alternata; A. alternata BCC020_0609, Muller Hinton broth with 2% glucose, 300–0.0732 µg/mL (control 32–0.0625), 30 °C 48 h, triplicate, least concentration showing any inhibition) was 0.58 µg/mL (≈ 0.479 µM), the MFC (Alternaria alternata; A. alternata, 10 µL from wells without visible growth after 48 h spread on Sabouraud dextrose agar, 72 h, kills 95–100% of the inoculum) was 75 µg/mL (≈ 61.9 µM) and the MIC (Candida friedrichii; C. friedrichii BCC020_2879, Muller Hinton broth with 2% glucose, 300–0.0732 µg/mL (control 32–0.0625), 30 °C 48 h, triplicate, least concentration showing any inhibition) was 75 µg/mL (≈ 61.9 µM). The MFC (Candida friedrichii; C. friedrichii, 10 µL from wells without visible growth after 48 h spread on Sabouraud dextrose agar, 72 h, kills 95–100% of the inoculum) was less than 300 µg/mL, the MIC (Monographella cucumerina; M. cucumerina BCC020_2872, Muller Hinton broth with 2% glucose, 300–0.0732 µg/mL (control 32–0.0625), 30 °C 48 h, triplicate, least concentration showing any inhibition) was 2.34 µg/mL (≈ 1.93 µM) and the MFC (Monographella cucumerina; M. cucumerina, 10 µL from wells without visible growth after 48 h spread on Sabouraud dextrose agar, 72 h, kills 95–100% of the inoculum) was 75 µg/mL (≈ 61.9 µM).
